The results in this text go back to US20230277698A1, “SILICON-CONTAINING LIGAND COMPOUNDS” (Technische Universität München, priority 2020, published 2023).

SMILES strings stand for the structures.

One data set deals with LNCaP cells. In words: Internalization studies on LNCaP cells. The class given is cell-based. Particulars: 177Lu-labelled, c=1.0 nM, 1 hour, 37 °C; % of reference ligand ([125I]I-BA)KuE (c=0.2 nM); corrected for non-specific binding (PMPA); mean±SD, n=3-6. The procedure: PSMA-positive LNCAP cells (300265; Cell Lines Service, Eppelheim, Germany) were cultivated in Dulbecco modified Eagle medium/Nutrition Mixture F-12 with Glutamax (1:1) (DMEM-F12, Biochrom, Berlin, Germany) supplemented with fetal bovine serum (10%, FBS Zellkultur, Berlin, Germany) and kept at 37° C. in a humidified CO2 atmosphere (5%). A mixture of trypsin and EDTA (0.05%, 0.02%) in PBS (Biochrom) was used in order to harvest cells. Cells were counted with a Neubauer hemocytometer (Paul Marienfeld, Lauda-Königshofen, Germany).
For internalization studies, LNCaP cells were harvested 24±2 hours before the experiment and seeded in poly-L-lysine coated 24-well plates (1.25×10^5 cells in 1 mL/well, Greiner Bio-One, Kremsmünster, Austria). After removal of the culture medium, the cells were washed once with 500 μL DMEM-F12 (5% BSA) and left to equilibrate for at least 15 min at 37° C. in 200 μL DMEM-F12 (5% BSA). Each well was treated with either 25 μL of either DMEM-F12 (5% BSA, control) or 25 μL of a 100 μM PMPA (2-(Phosphonomethyl)-pentandioic acid, Tocris Bioscience, Bristol, UK) solution in PBS, for blockade. Next, 25 μL of the radioactive-labelled PSMA inhibitor (10.0 nM in PBS) was added and the cells were incubated at 37° C. for 60 min. The experiment was terminated by placing the 24-well plate on ice for 3 min and consecutive removal of the medium. Each well was carefully washed with 250 μL of ice-cold HBSS. Both fractions from the first steps, representing the amount of free radioligand, were combined. Removal of surface bound activity was accomplished by incubation of the cells with 250 μL of ice-cold PMPA (10 μM in PBS) solution for 5 min and rinsed again with another 250 μL of ice-cold PBS. The internalized activity was determined by incubation of the cells in 250 μL 1 M aqueous NaOH for at least 10 min. The obtained fractions were combined with those of the subsequent wash step with 250 μL 1 M aqueous NaOH. Each experiment (control and blockade) was performed in triplicate. Free, surface bound and internalized activity was quantified in a γ-counter. All internalization studies were accompanied by external reference studies, using ([^125I]l-BA)KuE (c=0.2 nM), which were performed analogously. Data were corrected for non-specific binding and normalized to the specific-internalization observed for the radioiodinated reference compound.
Data is corrected for non-specific binding (10 μmol PMPA) and expressed as mean±SD (n=3-6): […]

Data set [1] concerns the target human serum albumin (HSA) (Homo sapiens, UniProt P02768). In words: HSA binding by high performance affinity chromatography (HiPAC). It is filed as in vitro ADME. Also on record: purchased Daicel, Tokyo, Japan H13H-2433. The settings on record: lutetium-complexed; Chiralpak HSA column. As for the experimental part:
HSA binding of the PSMA-addressing ligands was determined according to a previously published procedure via HPLC (Valko, K.; Nunhuck, S.; Bevan, C.; Abraham, M. H.; Reynolds, D. P., Fast gradient HPLC method to determine compounds binding to human serum albumin. Relationships with octanol/water and immobilized artificial membrane lipophilicity. J Pharm Sci. 2003, 92, 2236-2248). A Chiralpak HSA column (50×3 mm, 5 μm, H13H-2433, Daicel, Tokyo, Japan) was used at a constant flow rate of 0.5 mL/min at rt. Mobile phase A was a freshly prepared 50 mM aqueous solution of NH4OAc (pH 6.9) and mobile phase B was isopropanol (HPLC grade, VWR). The applied gradient for all experiments was 100% A (0 to 3 min), followed by 80% A (3 to 40 min). Prior to the experiment, the column was calibrated using nine reference substances with a HSA binding, known from literature, in the range of 13 to 99% (Valko, K.; Nunhuck, S.; Bevan, C.; Abraham, M. H.; Reynolds, D. P., J Pharm Sci. 2003, 92, 2236-2248; Yamazaki, K.; Kanaoka, M., Computational prediction of the plasma protein-binding percent of diverse pharmaceutical compounds. J Pharm Sci. 2004, 93, 1480-1494). All substances, including the examined PSMA ligands, were dissolved in a 1:1 mixture (v/v) of isopropanol and a 50 mM aqueous solution of NH4OAc (pH 6.9) with a final concentration of 0.5 mg/mL. Non-linear regression was established with the OriginPro 2016G software (Northampton, United States).
FIG. 1 is an exemplary sigmoidal plot, showing the correlation between human serum albumin (HSA) binding of selected reference substances and retention time (tR). The underlying values of HSA binding also shown in the corresponding table and were obtained from literature (Valko, K.; Nunhuck, S.; Bevan, C.; Abraham, M. H.; Reynolds, D. P., J Pharm Sci. 2003, 92, 2236-2248; Yamazaki, K.; Kanaoka, M., J Pharm Sci. 2004, 93, 1480-1494). Log tR: logarithmic value of experimentally determined retention time. Log K HSA: logarithmic value of HSA binding values.

Sequence of human serum albumin (HSA) (P02768 25-609): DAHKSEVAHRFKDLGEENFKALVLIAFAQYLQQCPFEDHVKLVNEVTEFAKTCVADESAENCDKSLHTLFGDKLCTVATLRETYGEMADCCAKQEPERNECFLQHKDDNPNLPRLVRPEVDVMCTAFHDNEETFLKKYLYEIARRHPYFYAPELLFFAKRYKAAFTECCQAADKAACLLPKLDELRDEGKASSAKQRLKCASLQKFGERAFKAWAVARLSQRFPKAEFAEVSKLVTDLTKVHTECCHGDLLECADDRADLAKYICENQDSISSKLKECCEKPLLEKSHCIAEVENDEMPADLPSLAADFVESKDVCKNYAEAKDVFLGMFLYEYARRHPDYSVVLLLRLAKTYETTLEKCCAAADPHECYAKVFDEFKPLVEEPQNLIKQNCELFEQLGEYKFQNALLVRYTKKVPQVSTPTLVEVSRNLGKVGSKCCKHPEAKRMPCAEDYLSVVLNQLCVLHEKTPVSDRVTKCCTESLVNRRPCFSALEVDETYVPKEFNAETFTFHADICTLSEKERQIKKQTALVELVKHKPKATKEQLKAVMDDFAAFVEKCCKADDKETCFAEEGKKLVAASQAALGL

`CC(C)(C)[Si](O)(c1ccc(C(=O)NC[C@@H](NC(=O)CC[C@@H](C(=O)O)N2CCN(CC(=O)O)CCN(CC(=O)O)CCN(CC(=O)O)CC2)C(=O)N[C@H](CCCCNC(=O)CCC(=O)NCCC[C@@H](NC(=O)CC[C@H](NC(=O)N[C@@H](CCC(=O)O)C(=O)O)C(=O)O)C(=O)O)C(=O)O)cc1)C(C)(C)C` [7.3-SiOH]: the “Internalization (% IBA)” value in the data set on LNCaP cells stood at 225 ± 23 % IBA. Also, in data set [1], the “HSA-binding HiPAC” value worked out at 96.4%.

For the compound `CC(C)(C)[Si](O)(c1ccc(C(=O)NC[C@@H](NC(=O)CCCCCNC(=O)CCCNC(=O)CC[C@@H](NC(=O)CCC(NC(=O)N[C@@H](CCC(=O)O)C(=O)O)C(=O)O)C(=O)O)C(=O)NCC(=O)N[C@@H](CCCCNC(=O)CC[C@@H](C(=O)O)N2CCN(CC(=O)O)CCN(CC(=O)O)CCN(CC(=O)O)CC2)C(=O)O)cc1)C(C)(C)C` (stereo partly drawn) [E104-SiOH], in the data set with LNCaP cells, the “Internalization (% IBA)” value is listed as 103 ± 2 % IBA. Besides, the “HSA-binding HiPAC” value in data set [1] was determined as 85.8%.

Take `CC(C)(C)[Si](F)(c1ccc(C(=O)NC[C@@H](NC(=O)CN2CCN(CC(=O)O)CCN(CC(=O)O)CCN(CC(=O)O)CC2)C(=O)N[C@H](CCCCNC(=O)CCC(=O)NCCC[C@@H](NC(=O)CC[C@H](NC(=O)N[C@@H](CCC(=O)O)C(=O)O)C(=O)O)C(=O)O)C(=O)O)cc1)C(C)(C)C` [rhPSMA-10, reference compound]: the “Internalization (% IBA)” value in the data set with LNCaP cells turned out to be 231 ± 57 % IBA. In data set [1], the “HSA-binding HiPAC” value worked out at 94.0%.

Turning to `CC(C)(C)[Si](F)(c1ccc(C(=O)NC[C@@H](NC(=O)CC[C@@H](C(=O)O)N2CCN(CC(=O)O)CCN(CC(=O)O)CCN(CC(=O)O)CC2)C(=O)N[C@H](CCCCNC(=O)CCC(=O)NCCC[C@@H](NC(=O)CC[C@H](NC(=O)N[C@@H](CCC(=O)O)C(=O)O)C(=O)O)C(=O)O)C(=O)O)cc1)C(C)(C)C` [rhPSMA-7.3, reference compound], the “Internalization (% IBA)” value in the data set with LNCaP cells amounted to 162 ± 14 % IBA. Moreover, the “HSA-binding HiPAC” value in data set [1] worked out at 98.5%.

With `CC(C)(C)[Si](O)(c1ccc(C(=O)NC[C@@H](NC(=O)CC[C@@H](C(=O)O)N2CCN(CC(=O)O)CCN(CC(=O)O)CCN(CC(=O)O)CC2)C(=O)NCC(=O)N[C@@H](CCCCNC(=O)CCC(=O)NCCC[C@@H](NC(=O)CC[C@H](NC(=O)N[C@@H](CCC(=O)O)C(=O)O)C(=O)O)C(=O)O)C(=O)O)cc1)C(C)(C)C` [E102-SiOH], the “Internalization (% IBA)” value in the data set on LNCaP cells came out at 203 ± 15 % IBA. Besides, the “HSA-binding HiPAC” value in data set [1] worked out at 95.1%.

`CC(C)(C)[Si](O)(c1ccc(C[N+](C)(C)CC(=O)NCCC[C@@H](NC(=O)CC[C@@H](C(=O)O)N2CCN(CC(=O)O)CCN(CC(=O)O)CCN(CC(=O)O)CC2)C(=O)NCCCCCC(=O)NCCC[C@@H](NC(=O)CC[C@H](NC(=O)N[C@@H](CCC(=O)O)C(=O)O)C(=O)O)C(=O)O)cc1)C(C)(C)C` [P110-SiOH]: in the data set with LNCaP cells, the “Internalization (% IBA)” value worked out at 46 ± 2 % IBA. Further, the “HSA-binding HiPAC” value in data set [1] worked out at 31.3%.

In the case of `O=C(O)CC[C@H](NC(=O)N[C@@H](CCCCNC(=O)[C@H](Cc1ccc2ccccc2c1)NC(=O)[C@H]1CC[C@H](CNC(=O)CN2CCN(CC(=O)O)CCN(CC(=O)O)CCN(CC(=O)O)CC2)CC1)C(=O)O)C(=O)O` [PSMA-617, reference compound], the “Internalization (% IBA)” value in the data set on LNCaP cells was 160 ± 2 % IBA. For the same compound, in data set [1], the “HSA-binding HiPAC” value amounted to 74.7%.

In the case of `CC(C)(C)[Si](O)(c1ccc(C(=O)N[C@H](CCC(=O)NC[C@@H](NC(=O)CC[C@@H](C(=O)O)N2CCN(CC(=O)O)CCN(CC(=O)O)CCN(CC(=O)O)CC2)C(=O)NCCCCCC(=O)NCCC[C@@H](NC(=O)CC[C@H](NC(=O)N[C@@H](CCC(=O)O)C(=O)O)C(=O)O)C(=O)O)C(=O)O)cc1)C(C)(C)C` [P105-SiOH], the “Internalization (% IBA)” value with LNCaP cells is reported as 185 ± 4 % IBA. For the same compound, the “HSA-binding HiPAC” value in data set [1] was 97.8%.

On to `CC(C)(C)[Si](O)(c1ccc(C(=O)NC[C@@H](NC(=O)CC[C@@H](C(=O)O)N2CCN(CC(=O)O)CCN(CC(=O)O)CCN(CC(=O)O)CC2)C(=O)N[C@H](CO)C(=O)NCCC(=O)NCCC(=O)NCCC[C@@H](NC(=O)CC[C@H](NC(=O)N[C@@H](CCC(=O)O)C(=O)O)C(=O)O)C(=O)O)cc1)C(C)(C)C` [C007-SiOH], for which, in the data set on LNCaP cells, the “Internalization (% IBA)” value came to 185 ± 15 % IBA. For the same compound, the “HSA-binding HiPAC” value in data set [1] is recorded as 86.3%.
